These results are taken from ChEMBL document CHEMBL4190169 (Medchemcomm, 2016).

Series [1] has as its target T1, Prostaglandin G/H synthase 1 (Ovis aries, UniProt P05979).
T1 sequence (P05979 whole entry): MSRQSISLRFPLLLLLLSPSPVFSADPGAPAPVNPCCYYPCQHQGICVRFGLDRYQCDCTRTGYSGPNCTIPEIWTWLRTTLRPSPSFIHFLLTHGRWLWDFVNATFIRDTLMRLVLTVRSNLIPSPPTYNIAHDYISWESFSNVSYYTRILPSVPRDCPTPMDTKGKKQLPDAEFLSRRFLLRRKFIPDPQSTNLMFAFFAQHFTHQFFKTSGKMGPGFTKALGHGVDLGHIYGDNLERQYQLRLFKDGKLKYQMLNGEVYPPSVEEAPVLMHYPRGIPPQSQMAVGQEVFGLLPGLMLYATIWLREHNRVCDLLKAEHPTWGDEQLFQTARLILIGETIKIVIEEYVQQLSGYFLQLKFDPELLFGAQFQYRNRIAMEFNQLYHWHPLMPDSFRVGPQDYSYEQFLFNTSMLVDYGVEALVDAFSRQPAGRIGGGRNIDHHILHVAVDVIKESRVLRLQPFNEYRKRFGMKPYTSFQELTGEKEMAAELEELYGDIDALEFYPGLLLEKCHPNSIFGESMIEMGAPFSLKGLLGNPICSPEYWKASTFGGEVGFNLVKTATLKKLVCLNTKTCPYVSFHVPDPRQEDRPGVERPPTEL
In words: Inhibition of ovine COX1 using arachidonic acid as substrate incubated for 5 mins followed by substrate addition measured after 2 mins by enzyme immunoassay.

The subject of series [2] is Rattus norvegicus. In words: Antiinflammatory activity in gamma-irradiated carrageenan-induced Wistar rat paw edema model assessed as paw oedema at 100 mg/kg, ip administered 1 hr prior to carrageenan challenge measured after 3 hrs (reference value: 89.5 +/- 1.47%). In kind it is functional. (The carrageenan paw model is a standard test of acute inflammation.)
The subject of series [3] is Rattus norvegicus. The series is described as follows: Analgesic activity in gamma-irradiated carrageenan-induced Wistar rat hyperalgesia model assessed as nociceptive threshold at 100 mg/kg, ip administered 1 hr prior to carrageenan challenge measured after 3 hrs by analgesimetric analysis (reference value: 37.60 +/- 0.79 g). In kind it is functional.
Series [4] is described as follows: Acute toxicity in Swiss albino mouse assessed as mortality administered ip measured for 24 hrs. In kind it is organism-based. The settings on record: in vivo, read-out: ALD50.
Series [5] deals with Rattus norvegicus. The series is described as follows: Ulcerogenic activity in Wistar rat assessed as appearance of ulcers and erosions in stomach by measuring ulcer index at 100 mg/kg, po measured after 4 hrs. The settings on record: in vivo. In kind it is toxicity, organism-based.

By IC50 is commonly meant the concentration that gives 50% inhibition. Lower therefore signals higher potency. The compound `Nc1nnc(S)s1` yielded an IC50 in series [1] above 50 µM.
In series [1], `N=c1cc(Nc2ccc(S(=O)(=O)Nc3ccccn3)cc2)n2[nH]c(=S)sc2n1` displayed an IC50 above 50 µM. In addition, the Activity with Rattus norvegicus [2] amounted to 24.21%; in the series on Rattus norvegicus [3], 85.8 g. Also, the LD50 at 24 h in series [4] is above 800 mg/kg. Also, the UI with Rattus norvegicus [5] is 0.05.
`S=C1NN2C(c3ccccc3)=CC(c3ccc(Cl)cc3)N=C2S1` (stereo not given): in series [1], the concentration for half-maximal inhibition (IC50) is 30.7 µM. Further, the Activity was 43.1% in the series on Rattus norvegicus [2] and 78.51 g with Rattus norvegicus [3]. In the series with Rattus norvegicus [5], the UI was determined as 0.6.
In the case of `N=c1cc(Nc2ccc(S(=O)(=O)Nc3ncccn3)cc2)n2[nH]c(=S)sc2n1`, the IC50 in series [1] is above 50 µM.
Still for that read-out and setting: the same measure for `O=S(=O)(Nc1ncccn1)c1ccc(NCNc2n[nH]c(=S)s2)cc1`: above 50 µM.
As for `Cc1ccc(-c2cc(C(F)(F)F)nn2-c2ccc(S(N)(=O)=O)cc2)cc1` [CELECOXIB], the Activity in the series with Rattus norvegicus [2] came out at 18.61%; with Rattus norvegicus [3] it was 90.23 g. In the series with Rattus norvegicus [5], the UI was 0.
As for `S=C1NN2C(c3ccccc3)=CC(c3ccc(Br)cc3)N=C2S1` (stereo not given), in series [1], the IC50 was above 50 µM.
`O=S(=O)(Nc1nccs1)c1ccc(NCNc2n[nH]c(=S)s2)cc1`: the IC50 in series [1] was above 50 µM. The Activity in the series on Rattus norvegicus [2] was found to be 24.6%; in the series on Rattus norvegicus [3], 90.21 g. Further, the LD50 at 24 h in series [4] is above 1000 mg/kg. The UI in the series with Rattus norvegicus [5] is given as 0.
The compound `Cc1cc(C)nc(NS(=O)(=O)c2ccc(NCNc3n[nH]c(=S)s3)cc2)n1` showed a half-inhibitory concentration (IC50) in series [1] above 50 µM.
The same measure, in the same setting: in the case of `NS(=O)(=O)c1ccc(NCNc2n[nH]c(=S)s2)cc1` it was above 50 µM.
For `N=c1cc(Nc2ccc(S(=O)(=O)Nc3nccs3)cc2)n2[nH]c(=S)sc2n1`, the IC50 in series [1] is above 50 µM. Also, the values for the Activity in the series on Rattus norvegicus [2] and with Rattus norvegicus [3] were 25.13% and 76.51 g, respectively. Also, the LD50 at 24 h in series [4] is above 1000 mg/kg. Besides, the UI in the series on Rattus norvegicus [5] was determined as 0.05.
In the case of `COc1ccc(C2SCC(=O)N2c2n[nH]c(=S)s2)cc1` (stereo not given), the IC50 in series [1] stood at 24 µM. Moreover, the Activity with Rattus norvegicus [2] came to 31.5%; in the series with Rattus norvegicus [3], 62.37 g. Besides, the UI with Rattus norvegicus [5] is given as 0.26.
`Cc1ccc(C2SCC(=O)N2c2n[nH]c(=S)s2)cc1` (stereo not given) returned an IC50 in series [1] above 50 µM.
For `COc1ccc(C2C(C#N)=C(N)N=C3SC(=S)NN32)cc1` (stereo not given), the IC50 in series [1] was above 50 µM.
The compound `Cc1ccnc(NS(=O)(=O)c2ccc(NCNc3n[nH]c(=S)s3)cc2)n1` came in with an IC50 in series [1] above 50 µM. Moreover, the Activity with Rattus norvegicus [2] is listed as 25.31%; with Rattus norvegicus [3], 80.78 g. Besides, in series [4], the LD50 at 24 h is above 800 mg/kg. Further, the UI in the series with Rattus norvegicus [5] worked out at 0.05.
In turn, `CN(C)c1ccc(C2C=C(c3ccccc3)N3NC(=S)SC3=N2)cc1` (stereo not given) gave an IC50 in series [1] above 50 µM.
In turn, `N#CC1=C(N)N=C2SC(=S)NN2C1c1ccc(Br)cc1` (stereo not given) had an IC50 in series [1] above 50 µM. Further, the Activity in the series on Rattus norvegicus [2] was determined as 31.3%; in the series with Rattus norvegicus [3], 60.51 g. The UI in the series with Rattus norvegicus [5] was 0.05.
Regarding `N#CC1=C(N)N=C2SC(=S)NN2C1c1ccc(Cl)cc1` (stereo not given), the concentration for half-maximal inhibition (IC50) in series [1] is above 50 µM.
Regarding `O=S(=O)(Nc1ccccn1)c1ccc(NCNc2n[nH]c(=S)s2)cc1`, the IC50 in series [1] was above 50 µM.
For the compound `N#CC1=C(N)N=C2SC(=S)NN2C1c1ccc([N+](=O)[O-])cc1` (stereo not given), the 50% inhibitory concentration (IC50) in series [1] was above 50 µM.
The same measure, in the same setting: the same measure for `Cc1ccc(/C=N/C2=NN3C(=O)CSC3S2)cc1` (stereo not given): above 50 µM; for `S=C1NN2C(c3ccccc3)=CC(c3ccccc3Cl)N=C2S1` (stereo not given): above 50 µM.
In series [1], `O=C1CSC(c2ccc(Br)cc2)N1c1n[nH]c(=S)s1` (stereo not given) registered a half-inhibitory concentration (IC50) of 1.32 µM. The Activity amounted to 25.07% with Rattus norvegicus [2] and 51.51 g in the series with Rattus norvegicus [3]. For the same compound, the LD50 at 24 h in series [4] was above 1000 mg/kg. Moreover, the UI with Rattus norvegicus [5] is given as 0.45.
As to `COc1ccc(C2C=C(c3ccccc3)N3NC(=S)SC3=N2)cc1` (stereo not given), it took 1.34 µM to reach half-maximal inhibition in series [1] (IC50). In addition, the results for the Activity in the series on Rattus norvegicus [2] and in the series with Rattus norvegicus [3] were 43.6% and 66.6 g, respectively. In addition, the UI with Rattus norvegicus [5] turned out to be 0.64.
With `N=c1cc(Nc2ccc(S(N)(=O)=O)cc2)n2[nH]c(=S)sc2n1`, in series [1], the IC50 is above 50 µM.
Compound `O=C1CSC2SC(/N=C/c3ccc(Br)cc3)=NN12` (stereo not given) gave an IC50 in series [1] above 50 µM. Further, the Activity with Rattus norvegicus [2] turned out to be 50.49%; with Rattus norvegicus [3], 44.91 g. Also, the UI with Rattus norvegicus [5] came to 0.
In series [1], `N#CC1=C(N)N=C2SC(=S)NN2C1c1ccccc1` (stereo not given) displayed an IC50 above 50 µM.
`COc1ccc(/C=N/C2=NN3C(=O)CSC3S2)cc1` (stereo not given) returned an IC50 in series [1] above 50 µM. The Activity in the series with Rattus norvegicus [2] is on record as 15.47%; in the series with Rattus norvegicus [3] it was 54.13 g. Besides, the LD50 at 24 h in series [4] was above 800 mg/kg. Besides, the UI with Rattus norvegicus [5] was 0.05.
As to `Cc1ccc(/C=N/c2n[nH]c(=S)s2)cc1`, the IC50 in series [1] is above 50 µM.
In the case of `S=c1[nH]nc(/N=C/c2ccc(Br)cc2)s1`, the concentration for half-maximal inhibition (IC50) in series [1] was above 50 µM. Moreover, the Activity in the series with Rattus norvegicus [2] amounted to 45.62%; with Rattus norvegicus [3], 95.6 g. Also, in the series with Rattus norvegicus [5], the UI is reported as 0.
With `O=C1CSC(c2ccc(Cl)cc2)N1c1n[nH]c(=S)s1` (stereo not given), the concentration for half-maximal inhibition (IC50) in series [1] was above 50 µM.
As to `CN(C)c1ccc(C2C(C#N)=C(N)N=C3SC(=S)NN32)cc1` (stereo not given), in series [1], the 50% inhibitory concentration (IC50) was above 50 µM. Further, the Activity in the series on Rattus norvegicus [2] came to 43.7%; in the series with Rattus norvegicus [3] it was 53.88 g. Further, in the series on Rattus norvegicus [5], the UI is 0.
Consider `O=C1CSC2SC(/N=C/c3ccc(Cl)cc3)=NN12` (stereo not given), for which the IC50 in series [1] was above 50 µM.
As for `COc1ccc(/C=N/c2n[nH]c(=S)s2)cc1`, in series [1], the IC50 was 41.7 µM. Moreover, the Activity in the series on Rattus norvegicus [2] was determined as 41.53%; in the series on Rattus norvegicus [3], 56.3 g. In addition, in the series on Rattus norvegicus [5], the UI is given as 0.38.
In turn, `S=c1[nH]nc(/N=C/c2ccc(Cl)cc2)s1` had a half-maximal inhibitory concentration (IC50) in series [1] above 50 µM.
